Source: ChEMBL document CHEMBL5338767, “A Molecular Toolbox of Positron Emission Tomography Tracers for General Anesthesia Mechanism Research” (J Med Chem, 2023)

Columns and labels:
[1] = target: T1, Alpha-2B adrenergic receptor (Homo sapiens, UniProt P18089); assay: Binding affinity to alpha2B receptor (unknown origin)
T1 sequence (P18089 whole entry): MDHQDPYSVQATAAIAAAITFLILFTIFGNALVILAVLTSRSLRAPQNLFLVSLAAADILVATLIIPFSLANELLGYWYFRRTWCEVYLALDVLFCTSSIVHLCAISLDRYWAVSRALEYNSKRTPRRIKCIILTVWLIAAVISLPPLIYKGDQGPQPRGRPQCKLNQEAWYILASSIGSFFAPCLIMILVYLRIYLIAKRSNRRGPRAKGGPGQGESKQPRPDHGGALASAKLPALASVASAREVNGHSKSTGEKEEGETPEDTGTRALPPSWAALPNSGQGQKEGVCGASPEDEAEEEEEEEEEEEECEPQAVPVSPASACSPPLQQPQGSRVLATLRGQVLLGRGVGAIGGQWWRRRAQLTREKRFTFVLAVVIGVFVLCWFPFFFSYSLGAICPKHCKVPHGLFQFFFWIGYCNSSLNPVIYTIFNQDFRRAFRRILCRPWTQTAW

[2] = Lipophilicity, logP of the compound; settings: octanol/water
[3] = target: T2, Alpha-2C adrenergic receptor (Homo sapiens, UniProt P18825); assay: Binding affinity to alpha2C receptor (unknown origin)
T2 sequence (P18825 whole entry): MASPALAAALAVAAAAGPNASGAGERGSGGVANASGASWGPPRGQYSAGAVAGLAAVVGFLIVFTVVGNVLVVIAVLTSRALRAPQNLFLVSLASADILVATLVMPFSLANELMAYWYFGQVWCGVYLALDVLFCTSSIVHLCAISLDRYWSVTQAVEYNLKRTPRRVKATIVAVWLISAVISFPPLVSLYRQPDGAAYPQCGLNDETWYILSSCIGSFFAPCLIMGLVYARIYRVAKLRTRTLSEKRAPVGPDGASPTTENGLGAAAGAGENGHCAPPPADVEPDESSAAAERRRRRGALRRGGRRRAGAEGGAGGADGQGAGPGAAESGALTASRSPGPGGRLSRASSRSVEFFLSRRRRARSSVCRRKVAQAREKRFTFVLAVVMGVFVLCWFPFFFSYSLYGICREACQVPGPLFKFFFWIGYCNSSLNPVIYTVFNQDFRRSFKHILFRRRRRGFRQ

[4] = Lipophilicity, logD of compound at pH 7; settings: buffer
[5] = target: T3, Alpha-2A adrenergic receptor (Homo sapiens, UniProt P08913); assay: Binding affinity to alpha2A receptor (unknown origin)
T3 sequence (P08913 whole entry): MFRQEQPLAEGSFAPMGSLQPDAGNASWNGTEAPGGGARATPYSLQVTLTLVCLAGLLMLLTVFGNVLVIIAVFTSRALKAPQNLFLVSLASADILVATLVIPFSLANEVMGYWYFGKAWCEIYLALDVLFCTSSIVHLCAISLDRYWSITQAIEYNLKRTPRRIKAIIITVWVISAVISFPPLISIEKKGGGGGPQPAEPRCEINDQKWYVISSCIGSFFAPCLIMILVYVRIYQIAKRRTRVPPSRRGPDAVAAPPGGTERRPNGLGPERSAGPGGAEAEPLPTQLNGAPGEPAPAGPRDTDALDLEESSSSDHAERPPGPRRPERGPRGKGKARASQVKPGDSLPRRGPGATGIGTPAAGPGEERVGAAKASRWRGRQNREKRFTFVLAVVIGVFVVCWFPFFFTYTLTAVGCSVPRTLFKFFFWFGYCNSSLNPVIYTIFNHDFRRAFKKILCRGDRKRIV

[6] = Dissociation constant, pKa of the compound; format: physicochemical
[7] = Drug distribution in rat brain assessed as dissociation constant; format: ADME, tissue-based
[8] = Drug distribution in rat brain assessed as maximum binding; format: ADME, tissue-based; settings: in vivo
[9] = Stability in Sprague-Dawley rat plasma assessed as parent compound remaining measured after 60 mins; format: ADME, cell-free; settings: read-out: Stability
[10] = Stability in Sprague-Dawley rat plasma assessed as parent compound remaining measured after 10 mins; format: ADME, cell-free; settings: read-out: Stability
[11] = Drug distribution in Sprague-Dawley rat adrenal gland at 1 mg/kg, iv measured at 10 mins in presence of ETO; format: ADME, organism-based; settings: in vivo
[12] = Drug distribution in Sprague-Dawley rat liver at 1 mg/kg, iv measured at 10 mins in presence of ETO; format: ADME, organism-based; settings: in vivo
[13] = Stability in Sprague-Dawley rat plasma assessed as parent compound remaining measured after 30 mins; format: ADME, cell-free; settings: read-out: Stability
[14] = target: Neuronal acetylcholine receptor; alpha4/beta2 (Homo sapiens, UniProt P17787+P43681); assay: Binding affinity to nACh alpha4beta2 receptor (unknown origin) assessed as inhibition constant; format: protein-complex assay
Neuronal acetylcholine receptor; alpha4/beta2, sequence (P17787 whole entry): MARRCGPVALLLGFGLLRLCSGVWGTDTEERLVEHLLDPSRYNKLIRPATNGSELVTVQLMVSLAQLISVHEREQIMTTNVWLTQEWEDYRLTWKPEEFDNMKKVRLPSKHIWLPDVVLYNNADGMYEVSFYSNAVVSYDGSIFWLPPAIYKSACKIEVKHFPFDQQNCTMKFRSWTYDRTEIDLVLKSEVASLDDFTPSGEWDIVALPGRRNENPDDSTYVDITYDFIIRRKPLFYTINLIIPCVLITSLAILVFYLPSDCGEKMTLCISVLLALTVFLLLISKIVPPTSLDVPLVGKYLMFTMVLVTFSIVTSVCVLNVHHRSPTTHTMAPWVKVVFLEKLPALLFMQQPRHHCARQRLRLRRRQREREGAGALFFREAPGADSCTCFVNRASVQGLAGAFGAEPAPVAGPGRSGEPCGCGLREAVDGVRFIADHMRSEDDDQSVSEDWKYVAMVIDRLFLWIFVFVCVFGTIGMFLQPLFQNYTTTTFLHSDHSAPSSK
Neuronal acetylcholine receptor; alpha4/beta2, sequence (P43681 whole entry): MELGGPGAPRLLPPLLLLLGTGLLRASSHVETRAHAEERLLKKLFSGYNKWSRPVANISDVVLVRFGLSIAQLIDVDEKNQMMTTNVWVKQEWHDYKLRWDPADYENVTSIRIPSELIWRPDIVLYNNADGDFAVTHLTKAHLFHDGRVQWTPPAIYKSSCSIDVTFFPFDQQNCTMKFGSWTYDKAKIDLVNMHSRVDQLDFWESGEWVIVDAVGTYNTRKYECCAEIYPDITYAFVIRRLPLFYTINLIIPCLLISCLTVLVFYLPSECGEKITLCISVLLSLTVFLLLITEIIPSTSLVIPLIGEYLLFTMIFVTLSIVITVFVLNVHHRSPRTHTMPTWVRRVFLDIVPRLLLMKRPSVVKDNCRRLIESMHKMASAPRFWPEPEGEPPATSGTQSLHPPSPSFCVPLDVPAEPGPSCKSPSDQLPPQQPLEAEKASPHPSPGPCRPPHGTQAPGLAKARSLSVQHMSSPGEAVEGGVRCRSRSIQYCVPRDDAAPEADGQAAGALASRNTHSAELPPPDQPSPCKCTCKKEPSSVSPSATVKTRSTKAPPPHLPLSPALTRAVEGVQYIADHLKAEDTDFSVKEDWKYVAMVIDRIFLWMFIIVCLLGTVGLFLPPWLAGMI

[15] = target: Neuronal acetylcholine receptor subunit alpha-7 (Homo sapiens, UniProt P36544); assay: Binding affinity to human nACh alpha7 receptor assessed as inhibition constant
Neuronal acetylcholine receptor subunit alpha-7 (Homo sapiens, UniProt P36544), sequence (P36544 whole entry): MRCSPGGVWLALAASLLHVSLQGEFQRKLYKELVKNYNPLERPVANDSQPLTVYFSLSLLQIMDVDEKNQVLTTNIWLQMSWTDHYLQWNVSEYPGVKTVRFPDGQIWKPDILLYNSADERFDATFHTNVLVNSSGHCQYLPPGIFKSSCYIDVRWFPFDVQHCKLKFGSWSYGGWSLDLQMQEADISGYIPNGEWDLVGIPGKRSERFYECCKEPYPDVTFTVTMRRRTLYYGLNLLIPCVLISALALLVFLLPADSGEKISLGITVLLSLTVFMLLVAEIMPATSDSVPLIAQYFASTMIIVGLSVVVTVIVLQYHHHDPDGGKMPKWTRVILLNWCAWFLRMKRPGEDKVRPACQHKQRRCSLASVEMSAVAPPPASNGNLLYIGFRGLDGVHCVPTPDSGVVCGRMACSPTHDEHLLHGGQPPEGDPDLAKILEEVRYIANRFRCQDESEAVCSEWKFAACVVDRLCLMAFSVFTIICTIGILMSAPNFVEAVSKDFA

[16] = target: Neuronal acetylcholine receptor subunit alpha-7 (Rattus norvegicus, UniProt Q05941); assay: Binding affinity to rat nACh alpha7 receptor assessed as inhibition constant
Neuronal acetylcholine receptor subunit alpha-7 (Rattus norvegicus, UniProt Q05941), sequence (Q05941 whole entry): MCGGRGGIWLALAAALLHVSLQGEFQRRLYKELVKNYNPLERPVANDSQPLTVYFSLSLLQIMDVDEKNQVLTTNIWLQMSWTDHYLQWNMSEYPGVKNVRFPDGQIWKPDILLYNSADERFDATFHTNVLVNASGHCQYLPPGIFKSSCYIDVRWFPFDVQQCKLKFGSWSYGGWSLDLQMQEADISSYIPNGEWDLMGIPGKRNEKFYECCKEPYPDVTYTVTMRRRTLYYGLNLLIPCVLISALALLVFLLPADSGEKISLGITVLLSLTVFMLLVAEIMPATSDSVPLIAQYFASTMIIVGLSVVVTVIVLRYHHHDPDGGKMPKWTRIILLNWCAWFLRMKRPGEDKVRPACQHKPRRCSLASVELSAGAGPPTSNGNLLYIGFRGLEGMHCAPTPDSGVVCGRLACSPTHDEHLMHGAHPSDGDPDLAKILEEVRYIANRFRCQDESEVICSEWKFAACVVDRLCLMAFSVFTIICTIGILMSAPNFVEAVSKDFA

[17] = Stability in human plasma incubated upto 60 mins; format: ADME, cell-free; settings: read-out: Stability

`[11CH3]OCc1cccnc1N1CCN(C[C@H]2COc3ccccc3O2)CC1` [ORM-13070 C-11] gave a Kd [1] of 23 nM, a logP [2] of 2.51 and a Kd [3] of 3.8 nM. It also gave a logD [4] of 1.94, a Kd [5] of 109 nM and a pKa [6] of 7.23.
Molecule `[18F]c1ccc(OC[C@H]2CCN2)cn1` has a Kd [7] of 0.028 nM, a logP [2] of 0.66 and a logD [4] of -2.02. For the same molecule, the pKa [6] was 9.01 and the Bmax [8] was 3.7 pmol/g.
For `COC(=O)c1cncn1[C@H](C)c1ccc([18F])cc1`, the remaining at 1 h [9] was 2%, the remaining at 10 min [10] was 13% and the Drug uptake [11] was 39%. For the same molecule, the logP [2] was 1.65, the logD [4] was 2.82 and the Drug uptake [12] was 66%. It also gave a remaining at 0.5 h [13] of 8% and a pKa [6] of 4.08.
For `[18F]c1ccc(-c2nnc(N3CCN4CCC3CC4)o2)cc1`, the Ki [14] was over 10000 nM, the logP [2] was 2.34 and the logD [4] was -0.82. It also gave a pKa [6] of 8.44.
With `[11CH3]c1ccc(OC(=O)N2CCN3CCC2CC3)cc1` the Ki [15] was 14 nM, the Ki [16] was 22 nM and the logP [2] was 1.95. The remaining at 1 h [17] was over 80%, the logD [4] was 1.89 and the pKa [6] was 8.19.
